# Biological target: T1, FPRL2 (Homo sapiens, UniProt P25089)
# T1 sequence (P25089 1-353): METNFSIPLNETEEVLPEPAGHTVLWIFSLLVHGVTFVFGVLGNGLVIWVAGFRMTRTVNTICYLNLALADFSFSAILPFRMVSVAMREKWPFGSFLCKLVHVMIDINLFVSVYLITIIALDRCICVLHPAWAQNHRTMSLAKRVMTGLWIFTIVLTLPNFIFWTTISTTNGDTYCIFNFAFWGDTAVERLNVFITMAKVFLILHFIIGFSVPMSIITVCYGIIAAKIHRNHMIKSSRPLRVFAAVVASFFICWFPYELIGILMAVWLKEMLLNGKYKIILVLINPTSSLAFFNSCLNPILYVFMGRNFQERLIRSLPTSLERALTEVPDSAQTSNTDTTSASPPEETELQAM
# Test: Cell surface FPRL2 on DCs by FACS after culture with F2L
# Format: cell-based
# Set-up: expressed in transfected cells; host or cells: CHO-K1
# Settings: 1 μM F2L for 48 hours; not shown
# Description: Antibodies were generated by injecting BALB/c mice with 100 μg pcDNA3-FPRL2 as described (45). Sera were tested by FACS on the CH0-K1-FPRL2 cell line, and immune mice were used to generate monoclonal antibodies by standard hybridoma technology, using the NSO myeloma cell line. The Ig class of selected hybridomas was determined with a mouse mAb isotyping kit (IsoStrip, Boehringer Mannheim). The antibodies were tested using flow cytometry, performed using anti-FPRL2 antibodies or control IgG2a at 1 μg/ml (for CHO-K1 cells) or 5 μg/ml (for primary cells) in PBS containing 0.1% BSA, 0.1% sodium azide, and FITC-conjugated γ-chain-specific goat anti-mouse IgG (Sigma) as secondary antibody. Fluorescence of 10,000 cells was assayed using a FACScan flow cytofluorimeter (Beckton Dickinson). Intracytoplasmic staining was realised using Cytoperm/Cytowash (Becton Dickinson) according to manufacturer's instructions.
smiles,measurement,value
CC[C@H](C)[C@H](NC(=O)[C@H](CCSC)NC(=O)CNC(=O)[C@H](CC(C)C)NC(=O)[C@H](CCSC)NC(C)=O)C(=O)N[C@@H](CCCCN)C(=O)N[C@@H](CC(N)=O)C(=O)N[C@@H](CO)C(=O)N[C@@H](CC(C)C)C(=O)N[C@@H](Cc1ccccc1)C(=O)NCC(=O)N[C@@H](CO)C(=O)N[C@H](C(=O)N[C@@H](CCC(=O)O)C(=O)N[C@H](C(=O)N[C@@H](Cc1c[nH]c2ccccc12)C(=O)N1CCC[C@H]1C(=O)N[C@@H](Cc1c[nH]c2ccccc12)C(=O)N[C@@H](CCC(N)=O)C(=O)N[C@H](C(=O)N[C@@H](CC(C)C)C(=O)O)C(C)C)[C@@H](C)O)C(C)C [F2L],cell surface FPRL2 on DCs,down regulation
